Measurements as given in US11298338B2, “Compositions and methods for cancer therapy” (UNIVERSITY OF IOWA RESEARCH FOUNDATION, priority 2016, dated 2022).
“Also recorded” adds a separate entry of the source.

Tests used:
OCI-MY5 cells = test: OCI-MY5 cell viability after 1 hr PAA treatment; format: cell-based, human; conditions: for effect of pre-treatment on PAA-induced cell death: OCI-MY5, catalase 100 U/ml, NAC 15 mM, DFO 200 μM or BCS 10 μM for 3 hrs before PAA, viability 24 hrs later
Experimental: FIGS. 2A-2D. […] OCI-MY5 EV (FIG. 2C) and OCI-MY5 OE-Fpn1 (FIG. 2D) were incubated with or without iron (Fe-NTA (FE), 100 μM).
(§1) FIGS. 4A-4E. […] (FIG. 4A) Top bar graph represents OCI-MY5 shRNA-Scramble and shRNA-AIF1 cells incubated with doxycycline to knockdown AIF1 for 2 days. Bottom bar graph represents OCI-MY5 EV and OCI-MY5 OE-AIF1 cells. […] Knockdown and overexpression of AIF1 was confirmed by western blots. […] AIF1, β-actin and γ-H2AX levels were analyzed by western blots. […] AIF1 and β-actin levels were analyzed by western blots. […] N, M, C respectively represent nucleus, mitochondria and cytoplasm. Blue arrows indicate the nuclear membrane and red arrowheads indicate AIF1 gold beads in cytoplasm or mitochondria. Black arrowheads indicate AIF1 gold beads in nuclei.
FIGS. 9A-9B. […] (FIG. 9B) Total RNA was extracted from OCI-MY5 EV and OE cells and Fpn1 mRNA was analyzed by Real time RT-PCR.
Human myeloma cell lines (ARP1, OCI-MY5 and their derivative cell lines) were cultured in RPMI 1640 (Invitrogen, Carlsbad, Calif.), supplemented with 10% heat-inactivated FBS (Invitrogen), penicillin (100 IU/mL), and streptomycin (100 μg/mL) in a humidified incubator at 37° C. and 5% CO2/95% air. To increase cellular iron concentration, ferric nitrilotriacatate (Fe-NTA) was used.

[1] = test system: ARP1 MM cells with TRIP13 overexpression; test: Cell viability of ARP1 cells with TRIP13-OE or EV under drug treatment; format: cell-based, human; conditions: for response of TRIP13-OE ARP1 cells to drug: ARP1-OE vs ARP1-EV, different doses (FIGS. 37A, 37B)
γ-H2AX = test: Western blot of phosphorylated γ-H2AX in OCI-MY5 cells; format: cell-based, human; conditions: OCI-MY5 (FIG. 4C); melphalan alone at high dose, with PAA at lower dose
Experimental: as §1
(§2) Cells were harvested and lysed with lysis buffer: 150 mM NaCl, 10 mM EDTA, 10 mM Tris, pH 7.4, 1% X-100 Triton. Cell lysates were subjected to SDS-PAGE, transferred onto a pure nitrocellulose membrane (BioRad), and blocked with 5% fat-free milk. […] Membranes were incubated with horseradish peroxidase (HRP)-conjugated anti-mouse secondary antibody (1:10,000, Santa Cruz Biotechnology, cat #: sc-2005) or anti-rabbit secondary antibody (1:10,000, AnaSpec Inc., cat #: AS-28177) for 1 h and chemi-luminescence signals were detected by HRP substrate (EMD Millipore).

caspases 3, 8, and 9 = test: Western blot of caspases in OCI-MY5 WT cells; format: cell-based, human; conditions: OCI-MY5 WT after PAA (FIG. 3B)
Experimental: (§3) FIGS. 3A-3B. […] Red boxes represent zooming image of mitochondria in OCI-MY5 WT cells (left) and OCI-MY5 WT cells treated with PA (right).
(§4) Cells were harvested and lysed with lysis buffer: 150 mM NaCl, 10 mM EDTA, 10 mM Tris, pH 7.4, 1% X-100 Triton. Cell lysates were subjected to SDS-PAGE, transferred onto a pure nitrocellulose membrane (BioRad), and blocked with 5% fat-free milk. Primary antibodies for immunoblotting included: anti-AIF1 (1:1000, Cell Signaling), anti-RIP (1:1000, Santa Cruz Biotechnology), anti-RIP3 (1:1000, Cell Signaling), anti-Caspase3 (1:1000, Cell Signaling), anti-Caspase 8 (1:1000, Cell Signaling), anti-Caspase 9 (1:1000, Cell Signaling) Phosphorylated γH2AX (1:1000, Enzo Life Sciences), and β-actin (1:1000, Cell Signaling) as loading control. Membranes were incubated with horseradish peroxidase (HRP)-conjugated anti-mouse secondary antibody (1:10,000, Santa Cruz Biotechnology, cat #: sc-2005) or anti-rabbit secondary antibody (1:10,000, AnaSpec Inc., cat #: AS-28177) for 1 h and chemi-luminescence signals were detected by HRP substrate (EMD Millipore).

AIF1 [2] = test: Western blot of AIF1 cleavage in OCI-MY5 cells; format: cell-based, human; conditions: OCI-MY5 cells (FIG. 4C); melphalan 0-80 μM 4 hrs
Experimental: as §1, §2

CD138+ MM cells = test: Pharmacological Ascorbic Acid viability assay (Trypan Blue), CD138+ cells from patients; format: cell-based, human
Experimental: CD138^+ MM cells and CD138^− non-MM cells were isolated from MGUS, SMM, and MM patient samples using anti-CD138 immunomagnetic beads (Miltenyl Biotec, Auburn, Calif.). […] After incubation, the cells were washed and cultured up to 24 h. Cell counts and viable cell number were determined using Trypan Blue staining.

CD138- non-MM cells = test: Pharmacological Ascorbic Acid viability assay (Trypan Blue), CD138- cells from patients; format: cell-based, human; conditions: CD138- BM cells from the same MM patients
Experimental: Pharmacological Ascorbic Acid (PAA) was kindly provided by Dr. Garry R. Buettner (University of Iowa). CD138^+ MM cells and CD138^− non-MM cells were isolated from MGUS, SMM, and MM patient samples using anti-CD138 immunomagnetic beads (Miltenyl Biotec, Auburn, Calif.). […] After incubation, the cells were washed and cultured up to 24 h. Cell counts and viable cell number were determined using Trypan Blue staining.

[3] = intraperitoneal administration of 4 g ascorbate per kilogram of body weight; cited from earlier work
[4] = cited from earlier work
AIF1 [5] = test: AIF1 immunolabeling electron microscopy in OCI-MY5 cells; format: cell-based, human; conditions: OCI-MY5, PAA 2 mM (FIG. 4E)
Experimental: as §1
(§5) Electron microscopy was performed by the Central Microscopy Research Facility personnel at the University of Iowa. Images were captured on JEOL JEM 1230.

ARP1 MM cells = test: Human myeloma xenograft mice, tumor burden by IVIS and survival; format: in vivo, NOD.Cγ-Rag1 mice; conditions: for MM cell growth (tumor burden) compared to the control group: p<0.05, melphalan, carfilzomib, bortezomib 3 mg/kg, 3 weeks
Experimental: NOD.Cγ-Rag1 mice 6-8 weeks old (Jackson laboratory, Bar Harbor, Me.) were injected intravenously with ARP1 MM cells (1×10^6) expressing luciferase. […] Bortezomib (3 mg/kg) was injected intraperitoneal once a day, 2 days a week for 3 weeks. The mice were euthanized when humane endpoint was reached.
Xenogen IVIS-200 an in vivo imaging system (IVIS) was used to analyze tumor burden and was indicated by quantification of luciferase intensity of mice pre- and post-treatments.
GEP data were analyzed by One-Way Anova test using log 2 transformed Affymetrix Signals and presented by boxplot. The comparisons of tumor burden were analyzed either by student t-test (2 groups) or by One-Way Anova test (>2 groups). Kaplan-Meier method was performed for survival with the use of SPSS 16.0 software (SPSS, Chicago, Ill.). Two-tailed p value at an alpha level of 0.05 was considered to indicate statistical significance. Graphs were generated using Prism 6 software.

OCI-MY5 WT cells = test: Transmission electron microscopy of PAA-treated OCI-MY5 WT cells; format: cell-based, human; conditions: 4 mM PAA one hour, fixed after 60 and 120 min
Experimental: as §3, §5

RIP1 and RIP3 = test: Western blot of RIP1 and RIP3 in OCI-MY5 WT cells; format: cell-based, human; conditions: OCI-MY5 WT after PAA (FIG. 3B)
Experimental: as §3, §4

AIF1 [6] = test: Western blot of nuclear AIF1 in ARP1 MM cell line; format: cell-based, human; conditions: TRIP13N and TRIP13OE MM cells (FIG. 38D)
[7] = test system: KMS11, ARK and ARP1 cells; test: Erastin growth inhibition, PrestoBlue assay; format: cell-based, human; conditions: ferrostatin (Fer-1) 1 μM with 10 μM Erastin, 48 hours
Experimental: FIG. 23. Erastin Inhibits MM Cells Growth. KMS11, ARK and ARP1 cells were treated with 10 μM Erastin with or without ferrostatin (Fer-1) at 1 μM for 48 hours. Cell proliferation was measured by PrestoBlue assay and normalized to control cells to calculated growth inhibition.

O=C([O-])CN(CC(=O)[O-])CC(=O)[O-].[Fe+3] [Iron, ferric nitrilotriacatate]
cell viability after iron pre-treatment and PAA (OCI-MY5 cells; OCI-MY5 EV cells, Fe-NTA 100 μM 18 hrs (FIG. 2C)): rapid decrease in cells viability
cell viability after iron pre-treatment and PAA (OCI-MY5 cells; OCI-MY5 OE-Fpn1 cells, Fe-NTA 100 μM 18 hrs (FIG. 2D)): same effect

CC(=O)N[C@@H](CS)C(=O)O [NAC, N-acetyl cysteine]
effect of pre-treatment on PAA-induced cell death (OCI-MY5 cells): resistant to PAA

O=C1O[C@H]([C@@H](O)CO)C(O)=C1O [PAA, ascorbic acid]
response of TRIP13-OE ARP1 cells to drug [1]: sensitive
phosphorylated γ-H2AX level (γ-H2AX): induced γ-H2AX
caspases 3, 8, and 9 activity (cleavage) (caspases 3, 8, and 9): marked increase
AIF1 cleavage by western blotting (AIF1 [2]): increase in the AIF1 cleaved form
response to PAA of CD138+ cells from MGUS patients (CD138+ MM cells; 2 MGUS patients (FIG. 1C)): almost no response
survival of CD138+ cells in vitro following PAA treatment (CD138+ MM cells; CD138+ cells from MM patients, PAA 1 hr, washed, cultured up to 24 h): significantly decreased; also recorded: increased killing
effect of PAA on cell viability in SMM patients (CD138+ MM cells; cells from SMM patients (FIG. 1B)): same effect
cell viability of CD138- BM cells following PAA treatment (CD138- non-MM cells): no significant change
levels of ascorbate [3]: 20000 to 40000 µM
levels of ascorbyl radicals [3]: 0.5 µM
safety and tolerability ([4]; IV, animals and humans): safe and well tolerated
plasma concentrations from pharmacological doses ([4]; intravenous (IV) administration): ≥ 10 mM
cellular localization of AIF1 (AIF1 [5]): also in cytoplasm and nuclei
MM cell growth (tumor burden) compared to the control group (ARP1 MM cells; FIG. 1D, PAA 4 mg/kg): inhibited MM cell growth significantly
tumor burden with PAA in mice receiving iron chelator DFO at the same time (ARP1 MM cells; PAA 4 mg/kg IP once a day, DFO 100 mg/Kg twice a week IP (FIG. 25)): not able to decrease tumor burden
tumor progression by IVIS (ARP1 MM cells; PAA 4 mg/kg, once per day, IP, 15 days vs saline): significantly delayed
type of cell death by TEM (OCI-MY5 WT cells): early necrosis (FIG. 3A, 60 mins) followed by late apoptosis
RIP1 and RIP3 cleavage (RIP1 and RIP3): cleaved
viability after PAA treatment, AIF1-shRNA cells versus scrambled sequence (OCI-MY5 cells; OCI-MY5 AIF1-shRNA (FIG. 4A top)): significantly higher
PAA concentration able to kill cells (OCI-MY5 cells; OCI-MY5 EV cells): 4 mM
viability after PAA treatment, OE-AIF1 cells versus empty vector (OCI-MY5 cells; OCI-MY5 OE-AIF1 (FIG. 4A bottom)): significantly less viability
PAA concentration required to successfully kill cells (OCI-MY5 cells; OCI-MY5 OE-Fpn1 cells): 20 mM
AIF1 nuclear translocation (AIF1 [6]): induces AIF1 nuclear translocation

CC(C)C[C@H](NC(=O)[C@H](Cc1ccccc1)NC(=O)c1cnccn1)B(O)O [bortezomib]
growth inhibition in TRIP13-OE MM cells compared with EV controls ([1]; ARP1, 24 h, p<0.05 (FIGS. 27E, 27F)): significantly less growth inhibition
response of TRIP13-OE ARP1 cells to drug [1]: resistant
MM cell growth (tumor burden) compared to the control group (ARP1 MM cells; FIG. 1D, PAA 4 mg/kg): inhibited MM cell growth significantly
AIF1 nuclear translocation (AIF1 [6]): does not increase AIF1 nuclear localization

CC(C)C[C@H](NC(=O)[C@H](CCc1ccccc1)NC(=O)CN1CCOCC1)C(=O)N[C@@H](Cc1ccccc1)C(=O)N[C@@H](CC(C)C)C(=O)[C@@]1(C)CO1 [carfilzomib]
MM cell growth (tumor burden) compared to the control group (ARP1 MM cells; FIG. 1D, PAA 4 mg/kg): inhibited MM cell growth significantly

CCOC(=O)c1ccc(NC2CCCCC2)c(N)c1 [ferrostatin]
effect of ferroptosis inhibitor on erastin growth inhibition [7]: can be reversed

N[C@@H](Cc1ccc(N(CCCl)CCCl)cc1)C(=O)O [melphalan]
phosphorylated γ-H2AX level (γ-H2AX): induced γ-H2AX
AIF1 cleavage by western blotting (AIF1 [2]): not able to induce AIF1 cleavage
MM cell growth (tumor burden) compared to the control group (ARP1 MM cells; FIG. 1D, PAA 4 mg/kg): inhibited MM cell growth significantly
tumor burden compared among treatments (ARP1 MM cells; FIG. 1D, single agents vs combination): higher decrease in tumor burden
time at which presence of tumor was detected (ARP1 MM cells; highest dose of melphalan, single agent): only after four weeks
tumor burden at three weeks of treatment (ARP1 MM cells; melphalan 1, 3, 5 mg/kg with or without PAA (FIGS. 1E, 1F)): inhibit tumor growth better than PAA alone
MM mouse survival, compared with PAA alone (ARP1 MM cells; single agent melphalan 3 and 5 mg/kg (FIG. 1G)): extended MM mouse survival

bathocuproinedisulfonic acid disodium salt [BCS]
effect of pre-treatment on PAA-induced cell death (OCI-MY5 cells): not able to block cellular death

catalase
effect of pre-treatment on PAA-induced cell death (OCI-MY5 cells): resistant to PAA
